Source: patent US20090220554A1, “Transglutaminase Inhibitors and Methods of Use Thereof” (priority 2005, published 2009)
pIC50: −log10 of the molar value.

Target: T1, recombinant human tissue transglutaminase 2 (TG2) (Homo sapiens, UniProt P21980)
T1 construct: 6xHis; made in house; host or cells: E. coli BL21
T1 sequence (P21980 1-687): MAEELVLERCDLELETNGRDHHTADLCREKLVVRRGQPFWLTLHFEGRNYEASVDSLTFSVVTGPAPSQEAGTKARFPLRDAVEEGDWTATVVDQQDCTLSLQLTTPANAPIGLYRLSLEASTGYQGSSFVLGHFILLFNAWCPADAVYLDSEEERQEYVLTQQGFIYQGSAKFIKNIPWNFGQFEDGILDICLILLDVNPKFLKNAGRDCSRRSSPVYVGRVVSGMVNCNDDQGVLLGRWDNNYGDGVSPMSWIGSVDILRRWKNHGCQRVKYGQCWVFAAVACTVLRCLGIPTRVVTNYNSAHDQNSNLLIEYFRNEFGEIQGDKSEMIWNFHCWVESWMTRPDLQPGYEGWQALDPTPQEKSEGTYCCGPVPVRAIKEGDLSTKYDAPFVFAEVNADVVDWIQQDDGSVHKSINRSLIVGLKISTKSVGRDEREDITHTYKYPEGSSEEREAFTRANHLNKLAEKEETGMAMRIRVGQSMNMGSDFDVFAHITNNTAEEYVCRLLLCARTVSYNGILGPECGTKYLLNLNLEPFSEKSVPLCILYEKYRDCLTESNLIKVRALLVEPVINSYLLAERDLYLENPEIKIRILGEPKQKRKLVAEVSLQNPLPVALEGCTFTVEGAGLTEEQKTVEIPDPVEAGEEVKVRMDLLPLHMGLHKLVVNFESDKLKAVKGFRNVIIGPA
Assay: TG2 transamidation assay (5-(biotinamido)pentylamine incorporation into dimethylated casein)
Format: biochemical
Details: not given
Description: Purification of recombinant human TG2. TG2 was purified from eight 1 L cultures of the BL21 strain of E. coli expressing a plasmid encoding recombinant, 6×-His tagged human tissue transglutaminase 2 (TG2). The enzyme was isolated from cell lysates using nickel affinity chromatography. Following a buffer exchange, TG2 was purified further by ion-exchange (HiTrap-Q) chromatography using an Akta-FPLC system (Amersham Biosciences). Fractions containing purified TG2 were pooled, exchanged into low salt buffer (20 mM Tris-Cl, 1 mM EDTA, 1 mM DTT, pH 7.2), supplemented with 10% glycerol, flash frozen in 100 μL aliquots and stored at −80° C.
Assays of tissue transglutaminase activity. The transamidation activity of TG2 was measured as described by Slaughter, et al. Anal Biochem, 1992. […] 5-BP incorporated by TG2 was visualized by binding of a streptavidin-alkaline phosphatase conjugate (Sigma) and kinetic measurement of the dephosphorylation of pNPP was monitored at 410 nm using a ThermoMax microplate reader (Molecular Devices). The deamidation activity of TG2 was measured essentially as described previously (Piper, et al. Biochemistry, 2002. 41(1): p. 386-93). […] TG2-catalyzed production of ammonium ions was monitored through the coupled oxidation of NADH by GDH. NADH levels were monitored by fluorescence (excitation: 341 nm; emission 451 nm) and were standardized with known amounts of NADH. […]

Structure (SMILES)	pIC50
O=C1NC(=O)N(c2cccc(Cl)c2)C(=O)/C1=N/c1ccc(Cl)c(CN2C(=O)c3ccccc3C2=O)c1 [CSRF-21, 5-[4-Chloro-3-(1,3-dioxo-1,3-dihydro-isoindol-2-ylmethyl)-phenylimino]-1-(3-chloro-phenyl)-pyrimidine-2,4,6-trione]	5.00

Target: T1, recombinant human tissue transglutaminase 2 (TG2)
Assay: TG2 deamidation assay (GDH-coupled fluorescent NADH assay, Z-Gln-Gly substrate)
Format: biochemical
Details: fluorescent NADH-based deamidation assay; from log(concentration)-response relationships; read-out: IC50 for inhibition of TG2
Experimental: The illustrative compounds of the invention described above were tested in a TG2 assay with recombinant human tissue transglutaminase, as described in the Examples. […] It should be noted that, although […] inhibition is observed upon addition of these compounds, this observation may result from the ability of some inhibitors to bind to the GTP binding site of TG2. […] Thus, it follows that pharmacologically useful inhibitors of TG2 could be identified based on their ability to bind to either the enzyme active site or the GTP binding site. Purification of recombinant human TG2. […] The enzyme was isolated from cell lysates using nickel affinity chromatography. Following a buffer exchange, TG2 was purified further by ion-exchange (HiTrap-Q) chromatography using an Akta-FPLC system (Amersham Biosciences). […] Assays of tissue transglutaminase activity. The transamidation activity of TG2 was measured as described by Slaughter, et al. Anal Biochem, 1992. 205(1): p. 166-71. Briefly, 96-well Maxisorp plates (Nunc, Inc.) were coated with […] N′—N′-dimethylated casein overnight at 4° C. […] The deamidation activity of TG2 was measured essentially as described previously (Piper, et al. Biochemistry, 2002. 41(1): p. 386-93). […] TG2-catalyzed production of ammonium ions was monitored through the coupled oxidation of NADH by GDH. NADH levels were monitored by fluorescence (excitation: 341 nm; emission 451 nm) and were standardized with known amounts of NADH. During enzymatic reactions, NADH levels were monitored kinetically using a Fluoroskan II (Labsystems, Inc.) 96-well plate reader and a lag time of four minutes. These values were determined through analysis of the log(concentration)-response relationships.

Structure (SMILES)	pIC50
O=C(CSc1nnc2c(n1)[nH]c1ccc(F)cc12)OC1CCCCC1 [CSRF-2, (6-fluoro-9H-1,3,4,9-tetraaza-fluoren-2-ylsulfanyl)-acetic acid cyclohexyl ester]	4.44
Cc1cccc(NC(=S)N(Cc2cc3ccc(C)c(C)c3[nH]c2=O)CC2CCCO2)c1 (stereo not shown) [CSRF-3, 1-(7,8-dimethyl-2-oxo-1,2-dihydro-quinolin-3-ylmethyl)-1-(tetrahydrofuran-2-ylmethyl)-3-m-tolyl-thiourea]	4.52
O=C(CN1C(=O)C(=O)c2ccccc21)Nc1ccc(N2CCN(C(=O)c3cccs3)CC2)cc1 [CSRF-6, 2-(2,3-dioxo-2,3-dihydro-indol-1-yl)-N-{4-[4-(thiophene-2-carbonyl)-piperazin-1-yl]-phenyl}-acetamide]	4.77
O=C(CN1C(=O)C(=O)c2cc(Br)ccc21)NCC1CC1 [CSRF-7, 2-(5-bromo-2,3-dioxo-2,3-dihydro-indol-1-yl)-N-cyclopropylmethyl-acetamide]	4.52
Cc1ccc2c(c1)C(=O)C(=O)N2CC(=O)Nc1ccc(S(=O)(=O)NCC2CCCO2)cc1 (stereo not shown) [CSRF-8]	3.82
O=C(NNC(=O)C1=NOC(CNc2ncc(C(F)(F)F)cc2Cl)C1)Nc1ccc(Cl)cc1 (stereo not shown) [CSRF-13, 1-(4-chloro-phenyl)-3-(2-{5-[3-chloro-5-trifluoromethyl-pyridin-2-ylamino)-methyl]-4,5-dihydro-isoxazol-3-yl}-carboxamido-N-urea]	3.60
O=C1Nc2ccc(Cc3ccc4c(c3)C(=O)C(=O)N4)cc2C1=O [CSRF-14, 1,1-di-(1H-indole-2,3-dione-5-yl)-methane]	4.80
CCN1C(=O)c2cccc3c(NC(=O)CSc4ccc5ccccc5n4)ccc1c23 [CSRF-17]	3.70
O=C1Nc2ccc(Oc3ccc4c(c3)C(=O)C(=O)N4)cc2C1=O [CSRF-18, di-(1H-indole-2,3-dione-5-yl)-ether]	4.64
O=C1C(=O)N(C(=O)NC2CCCCC2)c2ccc(Br)cc21 [CSRF-20, 5-bromo-2,3-dioxo-2,3-dihydro-indole-1-carboxylic acid cyclohexylamide]	3.96
CC1=CC(C)(C)N2C(=O)C(=O)c3cc(OC(=O)C4CCCO4)cc1c32 (stereo not shown) [CSRF-24, tetrahydrofuran-2-carboxylic acid 4,4,6-trimethyl-1,2-dioxo-1,2-dihydro-4H-pyrrolo[3,2,1-ij]quinolin-8-yl ester]	3.35

Test system: neurologic cancer
Assay: not given
Details: at concentrations of 12.5-50 mg/kg; cited from earlier work

Structure (SMILES)	activity in a mouse model for neurologic cancer
O=C(N[C@@H](Cc1ccc(O)cc1)C(=O)NCC1CC(Br)=NO1)OCc1ccccc1 (stereo partly shown) [KCC009]	active
